Where “and” joins values, the source holds several entries; their conditions need not be identical. Identical values can stand only once.
Legend:
[1] = tested on: facial nerve crush in male Wistar rats; test: Vibrissae functional recovery after facial nerve crush following prior agmatine sulfate intake (Example III); format: in vivo, rat
Description: The experiment was performed at Assaf Harofeh Medical Center, Israel, with 4-month-old male Wistar rats (Harlan, Israel) kept under standard conditions in the Institute's vivarium according to the Institutional Animal Care and Use Committee approved protocols (see Example II above). […] rats were divided into 2 groups of 14 animals each, one group drank sterile water containing agmatine sulfate 5.3 g/l, while the other drank regular sterile drinking-water for a period of 21 days. On day 21 both groups were switched to drink regular tap water. In 7 rats from each group the facial nerve was crushed unilaterally while the other 7 were left unoperated. Surgery was performed under halothane anesthesia (1.5% in 100% 02) and the facial nerve was crushed unilaterally at the stylomastoid foramen for 20 seconds with a jeweler's forceps under the operating microscope.
Transection of the facial nerve, which innervates the upper and lower lips results in paralysis of the vibrissae (whiskers) on the operated side. Functional recovery was assessed by evaluation of vibrissae movement for up to 14 days postoperatively using the following arbitrary scale of 0 to 4:0, complete paralysis with vibrissae flattened backwardly; —1, slight vibrating motion; —2, mild proximal vibrating motion; —3 moderate motion of vibrissae and lips; 4, full motion of lower face and vibrissae. Results were evaluated by analysis of variance (ANOVA) procedure followed by Bonferroni post hoc testing and differences considered significant at p<0.05.
B. sterile water containing agmatine and unoperated (controls, semisolid circle). C. Regular sterile drinking-water and nerve crush (solid square). D. sterile water containing agmatine and nerve crush (solid triangle). Results are the mean (±SEM, vertical lines) values of 7 animals. *=p<0.001 comparing group C to group D values.

[2] = tested on: humans; test: Open label dose-escalating safety and tolerability study of dietary agmatine sulfate capsules (Example I); format: in vivo, human; settings: oral doses of up to 2.67 g/day for over 2 years
[3] = tested on: male Wistar rats; test: Sub-chronic intake of high dose agmatine sulfate in the drinking water (Example II); format: in vivo, rat; settings: for Blood Pressure (mmHg), systolic, mean / Daily Drinking (ml), mean / Body Weight (g), mean: group mean; for Body Weight / Blood Pressure (mmHg), systolic / Daily Drinking: individual animal, sulfate
Description: The experiment was performed at Assaf Harofeh Medical Center, Israel, according to the Institutional Animal Care and Use Committee approved protocol. Three-month-old male Wistar rats (Harlan, Israel) weighing 250±20 g were caged individually under standard vivarium conditions of temperature (22±2° C.), humidity (55-75%) and light (12 h light-dark cycle) with a free supply of food and water. Experimental animals (n=10) drank sterile water containing agmatine sulfate 5.3 g/l, while controls (n=10) drank regular sterile drinking-water for 95 days. Drinking-water containing agmatine sulfate have bitter taste.
Animal body weight and systolic blood pressure (SBP) as measured by tail-cuff plethysmography (IITC Life Science, Woodland Hills, Calif.) were measured at the starting day of the experiment (day 1) and at various intervals thereafter. General behavior, fur appearance and feces appearance were also assessed. Water consumption was measured daily. After 95 days, 5 animals of each group were deeply anesthetized ([…] sodium pentobarbital, intraperitoneal) and the stomach, kidney, heart and liver removed for gross inspection. The stomach was inspected for appearance of ulcers. The rest of the animals, in both the control and experimental groups, were all maintained on regular diet (without agmatine sulfate in the drinking-water) for additional 20 days and then killed (on the 115th day). Results were evaluated by analysis of variance (ANOVA) procedure. Differences were analyzed by 2-tailed t-test and values of p≦0.05 were considered statistical significant. For data normalization, differences were expressed as percent change of day 1 values.

[4] = Day 115 (20 days after treatment)

Q: N=C(N)NCCCCN.O=S(=O)(O)O [agmatine sulfate] was tested. Which “Day after injury at which nearly full recovery of vibrissae movement is achieved” value ([1]; controls: day 14) did it give?
A: 12 days

Q: What about the “Increase in vibrissae motion as compared to controls (group C)” value ([1]; day 10 after injury, 5.3 g/l in drinking water for 21 days before crush) of the same compound?
A: 181.2%

Q: What about the “Recovery of vibrissae movement” value ([1]; group D vs group C, p<0.001) of the same compound?
A: significantly accelerated recovery of vibrissae movement

Q: What about the Adverse effects [2] of the same compound?
A: have not been associated with any adverse effects

Q: What about the “General cage behavior, fur appearance and feces appearance” value ([3]; 95 days treatment) of the same compound?
A: all normal

Q: And the “Blood Pressure (% Change), percent of day 1” value ([3]; Day 1)?
A: (100) %

Q: And the “Body Weight (% Change), percent of day 1” value ([3]; Day 1)?
A: (100) %

Q: What about the “Daily Drinking (% Change), percent of day 1” value ([3]; Day 1) of the same compound?
A: (100) %

Q: What about the “Blood Pressure (% Change), percent of day 1” value ([3]; Day 21) of the same compound?
A: (97.3) %

Q: And the “Body Weight (% Change), percent of day 1” value ([3]; Day 21)?
A: (97.6) %

Q: What about the “Daily Drinking (% Change), percent of day 1” value ([3]; Day 21) of the same compound?
A: (72.1) %

Q: And the “Blood Pressure (% Change), percent of day 1” value ([3]; Day 95)?
A: (96.9) %

Q: What about the “Body Weight (% Change), percent of day 1” value ([3]; Day 95) of the same compound?
A: (102.2) %

Q: And the “Daily Drinking (% Change), percent of day 1” value ([3]; Day 95)?
A: (83.9) %

Q: And the “Blood Pressure (% Change), percent of day 1” value ([3]; Day 115)?
A: (99.1) %

Q: And the “Body Weight (% Change), percent of day 1” value ([3]; Day 115)?
A: (103.9) %

Q: And the “Daily Drinking (% Change), percent of day 1” value ([3]; Day 115)?
A: (99.7) %

Q: What about the “Weight gain after switch to regular drinking water” value ([3]; after 95 days of treatment) of the same compound?
A: recovery in weight gain within 20 days

Q: And the Weight gain ([3]; during treatment)?
A: reduced weight gain with actual weight loss during the first 3 weeks of treatment

Q: And the “Volume of water intake” value ([3]; during treatment, 5.3 g/l in drinking water)?
A: reduction in volume of water intake

Q: What about the Systolic blood pressure ([3]; during treatment, recovered 20 days after cessation) of the same compound?
A: slight, but significant reduction

Q: And the “Blood Pressure (mmHg), systolic, mean” value ([3]; Day 1)?
A: 106.4 mmHg

Q: What about the “Daily Drinking (ml), mean” value ([3]; Day 1) of the same compound?
A: 34.8 mL

Q: And the “Body Weight (g), mean” value ([3]; Day 1, n=10)?
A: 253.4 g

Q: What about the “Blood Pressure (mmHg), systolic, mean” value ([3]; Day 21, p<0.05 vs day 1) of the same compound?
A: 103.5 ± mmHg

Q: And the “Body Weight (g), mean” value ([3]; Day 21, p<0.05 vs day 1)?
A: 247.3 ± g

Q: What about the “Daily Drinking (ml), mean” value ([3]; Day 21, p<0.05 vs day 1) of the same compound?
A: 25.1 ± ml

Q: What about the “Blood Pressure (mmHg), systolic, mean” value ([3]; Day 95, p<0.05 vs day 1) of the same compound?
A: 103.1 ± mmHg

Q: And the “Body Weight (g), mean” value ([3]; Day 95, p<0.05 vs day 1)?
A: 258.9 ± g

Q: And the “Daily Drinking (ml), mean” value ([3]; Day 95, p<0.05 vs day 1)?
A: 29.2 ± ml

Q: What about the “Body Weight (g), mean” value ([3]; Day 115 (20 days after treatment), n=5, p<0.05 vs day 1) of the same compound?
A: 261.4 ± g

Q: And the “Blood Pressure (mmHg), systolic, mean” value ([3]; Day 115, n=5)?
A: 105.8 mmHg

Q: And the “Daily Drinking (ml), mean” value ([3]; Day 115, n=5)?
A: 34.9 mL

Q: And the “Body Weight” value ([3]; Day 1 (beginning), 5.3 g/l in drinking water)?
A: 250 g (2×) and 265 g and 255 g and 257 g and 247 g and 245 g and 252 g and 260 g and 253 g

Q: And the “Blood Pressure (mmHg), systolic” value ([3]; Day 1, tail-cuff)?
A: 99.0 mmHg and 100.0 mmHg and 105.0 mmHg (2×) and 112.0 mmHg and 115.0 mmHg and 110.0 mmHg and 109.0 mmHg and 102.0 mmHg and 107.0 mmHg

Q: And the “Daily Drinking” value ([3]; Day 1)?
A: 35.5 ml and 34.8 ml and 35.6 ml (2×) and 34.7 ml and 33.4 ml and 35.0 ml (2×) and 33.8 ml and 34.5 ml

Q: What about the “Blood Pressure (mmHg), systolic” value ([3]; Day 21) of the same compound?
A: 97.0 mmHg and 95.0 mmHg and 100.0 mmHg (2×) and 109.0 mmHg and 115.0 mmHg and 103.0 mmHg (2×) and 107.0 mmHg and 106.0 mmHg

Q: And the “Daily Drinking” value ([3]; Day 21)?
A: 21.4 mL and 25.3 mL and 25.1 mL and 25.0 mL and 24.1 mL and 25.5 mL and 26.4 mL and 24.9 mL and 27.0 mL and 26.7 mL

Q: What about the “Body Weight” value ([3]; Day 21 of treatment) of the same compound?
A: 255 g (2×) and 245 g (3×) and 260 g and 227 g and 242 g and 250 g and 249 g

Q: What about the “Blood Pressure (mmHg), systolic” value ([3]; Day 95) of the same compound?
A: 95.0 mmHg and 97.0 mmHg and 101.0 mmHg (2×) and 110.0 mmHg and 112.0 mmHg and 105.0 mmHg (2×) and 106.0 mmHg and 99.0 mmHg

Q: And the “Daily Drinking” value ([3]; Day 95)?
A: 25.6 ml and 28.7 ml and 30.0 ml (2×) and 27.7 ml and 29.6 ml and 30.3 ml and 28.4 ml and 31.3 ml and 30.6 ml

Q: And the “Body Weight” value ([3]; Day 95 of treatment)?
A: 265 g and 257 g (2×) and 273 g and 253 g and 251 g and 255 g (2×) and 263 g and 260 g

Q: What about the “Blood Pressure (mmHg), systolic” value [3, 4] of the same compound?
A: 108.0 mmHg and 107.0 mmHg (2×) and 104.0 mmHg and 103.0 mmHg

Q: And the “Body Weight” value [3, 4]?
A: 256 g and 261 g and 259 g and 267 g and 264 g

Q: And the “Daily Drinking” value [3, 4]?
A: 34.5 mL and 35.3 mL and 34.9 mL and 35.0 mL and 34.8 mL

Q: What about the Stomach ulcers ([3]; inspection after 95 days) of the same compound?
A: no stomach ulcers were observed

Q: What about the “Average daily water consumption” value ([3]; over the 95 day treatment period) of the same compound?
A: 27.15 mL

Q: What about the “Inspection of main internal organs” value ([3]; stomach, kidney, heart, liver) of the same compound?
A: did not reveal any gross changes

Reference: US8916612B2, “Agmatine containing dietary supplements, nutraceuticals, and foods” (priority 2008, dated 2014)
